The target of the experiment is T1, cysLT2 receptor (Homo sapiens, UniProt Q9NS75).
T1 construct: expressed in transfected cells; host or cells: HEK293
T1 sequence (Q9NS75 1-346): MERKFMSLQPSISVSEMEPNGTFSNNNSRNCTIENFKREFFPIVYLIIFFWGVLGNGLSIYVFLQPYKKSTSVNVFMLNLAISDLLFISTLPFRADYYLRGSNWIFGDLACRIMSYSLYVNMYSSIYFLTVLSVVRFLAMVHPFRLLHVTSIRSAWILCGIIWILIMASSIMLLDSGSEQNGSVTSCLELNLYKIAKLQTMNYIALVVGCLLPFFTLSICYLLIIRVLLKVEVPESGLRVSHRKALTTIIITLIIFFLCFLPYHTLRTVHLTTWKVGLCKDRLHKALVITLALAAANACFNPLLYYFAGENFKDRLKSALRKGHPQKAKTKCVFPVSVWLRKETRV
The experiment is described as follows: Effect on LTD4-induced increase of intracellular calcium. Type of experiment: cell-based. Conditions: HEK293 expression cells of cysLT2 receptor, 100 nM LTD4, compound 180 seconds before stimulation; read-out: IC50 value (50% inhibitory concentration, LTD4-induced intracellular calcium influx). Here is the method: Expression cells of cysLT2 receptor (HEK293) were seeded in a 96-well plate each containing 1×10^5 cells. The cells were cultured for 24 hours in a 5% CO2 at 37° C. using DMEM (Dulbecco's Modified Eagle Medium). The cells were incubated in 7.5 μM Fura2-AM, 20 mM HEPES (2-[4-(2-hydroxyethyl)-1-piperazinyl]ethanesulfonic acid) and 2.5 mM probenecid for approximately 30 minutes at 37° C. The cells with uptake of Fura2-AM were once washed with assay buffer (Hank's buffer containing 20 mM HEPES) and intracellular calcium influx induced by LTD4 was measured by FDSS2000 (Hamamatsu Photonics K.K.). The compound of the present invention was administered 180 seconds before LTD4 stimulation, and the reaction induced by 100 nM LTD4 was measured in time course for 90 seconds. The effect of the compound of the present invention was evaluated by maximum fluorescence intensity, and 50% inhibitory concentration (IC50) was calculated on each compound.

`O=C(O)CCC(=O)N1CC(c2nnn[nH]2)Oc2c(NC(=O)c3ccc(OCCCCc4ccccc4)cc3)cccc21` (centres unmarked) [Example 12]: the IC50 is 101 nM.

With `O=C(O)CCCN1CC(C(=O)O)Oc2c(OCc3ccc(OCCCCc4ccccc4)cc3)cccc21` (centres unmarked) [Example 25], the IC50 came out at 30 nM.

Values taken from patent publication US7763610B2, “Carboxylic acid derived benzoxazines as agents for the treatment of respiratory diseases” (Ono Pharmaceutical Co., Ltd., priority 2003, dated 2010).
